Experimental data taken from patent US9820487B2, “Abscinazole” (NATIONAL UNIVERSITY CORPORATION SHIZUOKA UNIVERSITY, priority 2014, dated 2017).

Target: T1, abscisic acid 8′-hydroxylase CYP707A3 (Arabidopsis thaliana, UniProt Q9FH76)
T1 sequence (Q9FH76 1-463): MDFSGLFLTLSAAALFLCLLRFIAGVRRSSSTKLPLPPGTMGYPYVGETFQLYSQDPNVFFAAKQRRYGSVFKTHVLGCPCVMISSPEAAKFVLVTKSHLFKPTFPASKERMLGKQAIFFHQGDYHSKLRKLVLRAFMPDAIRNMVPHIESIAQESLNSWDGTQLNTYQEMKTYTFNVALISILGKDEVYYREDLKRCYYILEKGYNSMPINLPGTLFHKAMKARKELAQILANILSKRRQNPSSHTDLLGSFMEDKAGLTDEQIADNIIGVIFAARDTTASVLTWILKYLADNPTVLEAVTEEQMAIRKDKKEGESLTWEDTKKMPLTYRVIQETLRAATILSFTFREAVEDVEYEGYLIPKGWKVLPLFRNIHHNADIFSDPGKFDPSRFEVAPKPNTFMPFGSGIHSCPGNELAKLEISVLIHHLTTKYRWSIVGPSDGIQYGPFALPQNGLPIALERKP
Experiment: Abscisic acid 8′-hydroxylase CYP707A3 inhibition test
Format: biochemical
Conditions: CYP707A3 + NADPH-P450 reductase ATR1, substrate ABA, 30° C. 10 minutes; IC50 calculated from two concentrations
Procedure: In a 1.5 mL microtube, 10 μL of a solution of substrate 250 μM ABA in potassium/phosphate buffer (KPB), 5 μL of a solution of the sample in dimethylformamide, 435 μL of KPB and 40 μL of abscisic acid 8′-hydroxylase CYP707A3+NADPH-P450 reductase ATR1 were put and heated at 30° C. for 10 minutes. 10 μL of a solution of 5 mg/mL NADPH in KPB was added thereto thereby starting the enzyme reaction. The reaction was carried out at 30° C. for 10 minutes at a rotation speed of 1000 rpm, and 25 μL of an aqueous solution of 1 M sodium hydroxide was added thereto thereby terminating the reaction. The reaction solution was allowed to stand at 4° C. for 30 minutes and subsequently 50 μL of 1 M hydrochloric acid was added thereto to convert the enzyme metabolite to phaseic acid (PA). The enzyme reaction solution was subjected to an OASIS HLB cartridge (1 cc, 30 mg; washed with 1 mL of methanol (1% acetic acid) and equilibrated with 1 mL of water (1% acetic acid)) and washed with 1 mL of 10% methanol/water (1% acetic acid) thereby eluting phaseic acid with 1 mL of methanol (1% acetic acid). The eluate was concentrated under reduced pressure (toluene was added to azeotrope acetic acid), the obtained substance was dissolved in 50 μL of methanol. 20 μL of the solution was subjected to HPLC (column, YMC-Pack Hydrosphere C18 (6 mm inner diameter×150 mm length); flow rate 1 mL/min; detection 254 nm) analysis. The CYP707A3 inhibition rate of the samples was calculated in accordance with the following formula (3). Note that dimethylformamide was used for the control in place of the sample solution. Each sample was tested with two different concentrations to calculate the 50% inhibition concentration (IC50) based on the enzyme inhibition rates thereof The results are shown in Table 1.
Enzyme inhibition rate (%)={1-(PA peak area of each sample/PA peak area of control)}×100 . . . (3)

potency estimated from few doses: 64 nM
Structure (SMILES): COCCOCCOCCOCC#Cc1cccc(/C=C(\[C@@H](O)C(C)(C)C)n2cncn2)c1 [Example 1 (−) Form, (−)-(S)-(E)-1-(3-(2,5,8,11-tetraoxatetradec-13-yn-14-yl)phenyl)-4,4-dimethyl-2-(1H-1,2,4-triazol-1-yl)pent-1-en-3-ol]
